Data published in US6852332B2, “Liquid vitamin composition” (Adisseo France S.A.S., priority 2000, dated 2005).

Tests used:
Type in all cases: physicochemical
[1] = Stability of second liquid vitamin formulation (Example 1), stored at 40° C., HPLC; details: for CONC at T = 0: immediately after preparation; for CONC at T = 1 week / CONC at T = 2 weeks / CONC at T = 3 weeks / CONC at T = 4 weeks: stored at 40° C.
Description: (§1) The stability of each formulation in the composition each was determined over a 4 weeks period. The concentration of vitamin in the formulation was analysed using standard analytical methods (high performance liquid chromatography). The formulations were stored at 40° C. over the test period.

[2] = Stability of first liquid vitamin formulation (Example 1), stored at 40° C., HPLC; details: for CONC at T = 0: immediately after preparation; for CONC at T = 2 weeks / CONC at T = 4 weeks: stored at 40° C.
Description: as §1

[3] = Stability of vitamin A in poultry feed (Example 3), 20° C., 80% humidity, HPLC; details: four weeks
Description: A standard poultry feed comprising a digestible carbohydrate, a source of fat, a source of amino acid, vitamins and minerals as detailed in Table 3.1 below was used in this example Two sources of vitamin A are compared. Mixture A contained the vitamin composition in the liquid form according to the present invention whilst mixture B contained the conventional powdered vitamin composition. The vitamin pre-mixes were added to the feed. The stability of vitamin A in both feed samples was determined over a four weeks period. The feeds were stored at 20° C. and under 80% humidity. The concentration of vitamin A in the feed was measured using conventional analytical methods (high performance liquid chromatography).

[4] = Stability of third liquid vitamin formulation (vitamin K3, Example 1), stored at 40° C., HPLC
Description: as §1

Compound | CONC at T = 0 [1] | CONC at T = 1 week [1] | CONC at T = 2 weeks [1] | CONC at T = 3 weeks [1] | CONC at T = 4 weeks [1] | CONC at T = 0 [2] | CONC at T = 2 weeks [2] | CONC at T = 4 weeks [2] | further results
Cc1ncc(CO)c(CO)c1O.OCl [Vitamin B6, pyridoxine chlorohydrate] | 0.355 g % g of solution | 0.32 g % g of solution | 0.33 g % g of solution | 0.333 g % g of solution | 0.329 g % g of solution | – | – | – | –
Oil of Vitamin D3 | – | – | – | – | – | 56200 UI/g | 56160 UI/g | 52800 UI/g | –
Oil of Vitamin A | – | – | – | – | – | 120500 UI/g | 118500 UI/g | 120400 UI/g | Stability of vitamin A in feed, liquid pre-mix versus powdered pre-mix (in words) [3]: as stable in the feed containing the liquid pre-mix as in the conventional powdered pre-mix
CC1=CC(=O)c2ccccc2C1=O [Vitamin K3, menadione] | – | – | – | – | – | – | – | – | Stability of vitamin K3 in the third liquid formulation (in words) ([4]; 40° C., 4 weeks): stable; CONC at T = 0 ([4]; third formulation, immediately after preparation): 2.00 g % g of solution; CONC at T = 2 weeks ([4]; third formulation, stored at 40° C., 2 weeks): 1.93 g % g of solution; CONC at T = 4 weeks ([4]; third formulation, stored at 40° C., 4 weeks): 1.92 g % g of solution
Oil of Vitamin E | – | – | – | – | – | 27.6% | 29.1% | 29.3% | –
NC(=O)c1cccnc1 [Vitamin B3, niacinamide] | 8 g % g of solution | 7.98 g % g of solution | 7.8 g % g of solution | 7.85 g % g of solution | 8 g % g of solution | – | – | – | –
Vitamin B12 | – | – | – | – | – | 0.0202% | 0.0165% | 0.0157% | –
Cc1cc2nc3c(=O)[nH]c(=O)nc-3n(C[C@H](O)[C@H](O)[C@H](O)CO)c2cc1C [Vitamin B2, riboflavin] | 1 g % g of solution | 1.08 g % g of solution | 1.04 g % g of solution | 1.04 g % g of solution | 1.01 g % g of solution | – | – | – | –
O=C(O)CCCC[C@@H]1SC[C@@H]2NC(=O)N[C@@H]21 [Vitamin H, biotine] | 0.021 g % g of solution | 0.022 g % g of solution | 0.02 g % g of solution | 0.021 g % g of solution | 0.021 g % g of solution | – | – | – | –
CC(C)(CO)[C@@H](O)C(=O)NCCCO [Vitamin B5, dexpanthénol] | 2.63 g % g of solution | 2.64 g % g of solution | 2.65 g % g of solution | 2.64 g % g of solution | 2.69 g % g of solution | – | – | – | –
